Laboratory results as given in patent publication US7718715B2, “pH-modified latex comprising a synergistic combination of biocides” (S.C. Johnson & Son, Inc., priority 2004, dated 2010).

Tests used:
[1] = test system: Escherichia coli #11229, Pseudomonas aeruginosa #15442; test: Challenge Test (Antimicrobial Effectiveness Test), bacterial inoculum (1:1 mixture); assay type: cell-based, E. coli & P. aeruginosa; details: stabilized acrylic latex A, DN 22%
Method: The following cultures were obtained from American Type Culture Collection (ATCC) at 10801 University Boulevard, Manassas, Va. 20110-2209: Escherichia coli #11229, Pseudomonas aeruginosa #15442, Candida albicans #10231, Aspergillus niger #6275. The bacterial inoculum was 0.10 ml of a 1:1 mixture of the 24-hr±4 hr culture of E. coli and P. aeruginosa in 25 grams of sample to give approximately 4×10^6 CFU/g. Both E. coli culture and the P. aeruginosa culture were grown in Nutrient Broth (Difco Laboratories, Detroit, Mich.) at 35° C. Each of the 25-g samples were inoculated or challenged with 0.10 ml of the bacterial inoculum, the yeast inoculum, and the mold inoculum respectively on day-0 and day-14. All samples were stored at ambient temperature. Each sample (10 microliter) was streaked on appropriate agar plates (bacteria on Tryptic Soy Agar (Difco Laboratories, Detroit, Mich.) plates with neutralizer and yeast/mold on Potato Dextrose Agar (Difco Laboratories, Detroit, Mich.) plates with neutralizer) on day-1, day-2, day-3, day-7, day-14, day-15, day-16, day-17, day-21, and day-28 to test for survivors. Streaked plates were incubated at appropriate temperature and time (48-hr at 35±2° C. for bacteria and 72-hr at 28±2° C. for yeast/mold). On day-14, each sample was re-inoculated with appropriate inoculum after streaking on agar plates. Plates were read after incubation time. Recovery of surviving organisms at 14 days was a failing result for the challenge test. Biocides were always added after the reaction has been completed and after the batch has been cooled to <50° C. The desired temperature was dependent on the specific biocide. Many biocides become deactivated if exposed to high temperatures for an extended time. Each biocide was diluted with about 5× its weight with DI water and slowly added to the batch with good agitation. The dilution is to prevent the biocide from shocking the latex. The batch was mixed for a minimum of 20 minutes after the biocide was added to ensure good incorporation. If any temporary destabilization to the latex had occurred, it had time to recover prior to filtration. The Challenge Test is a qualitative laboratory procedure used to differentiate poorly and marginally preserved products from well-preserved products. Products are intentionally inoculated with test organisms and then evaluated by use of streak plating technique to determine if microbial reduction has been attained.

C. albicans & A. niger = test: Challenge Test end point on yeast and mold and Synergy Index (Kull); assay type: cell-based; details: Bioban CS-1135 acting alone (QA); test stabilized acrylic latex A
Method: Each of the 25-g samples were inoculated or challenged with 0.10 ml of the bacterial inoculum, the yeast inoculum, and the mold inoculum respectively on day-0 and day-14. All samples were stored at ambient temperature. Each sample (10 microliter) was streaked on appropriate agar plates (bacteria on Tryptic Soy Agar (Difco Laboratories, Detroit, Mich.) plates with neutralizer and yeast/mold on Potato Dextrose Agar (Difco Laboratories, Detroit, Mich.) plates with neutralizer) on day-1, day-2, day-3, day-7, day-14, day-15, day-16, day-17, day-21, and day-28 to test for survivors. Streaked plates were incubated at appropriate temperature and time (48-hr at 35±2° C. for bacteria and 72-hr at 28±2° C. for yeast/mold). […] Plates were read after incubation time. […]
Synergism was determined by the method described by F. C. […] Eisman, H. D. Sylwestrowicz, and R. L. Mayer in Applied Microbiology, Volume 9, pages 538-541, 1961 using the ratio determined by • Synergy Index (SI)=Qa/QA+Qb/QB=1 is additivity, <1 is synergism, and >1 is antagonism • where, • Qa=concentration of compound A, in the mixture, producing an end point • QA=concentration of compound A, acting alone, producing an end point • Qb=concentration of compound B, in the mixture, producing an end point • QB=concentration of compound B, acting alone, producing an end point

Aspergillus niger #6275 = test: Challenge Test (Antimicrobial Effectiveness Test), mold inoculum; assay type: cell-based; set-up: key to Challenge Test result: Mold A. niger: Fail: Recovery of surviving organisms at 14 days was a failing result for the challenge test; details: for Challenge Test result: Mold A. niger: stabilized acrylic latex A, DN 22%
Method: The following cultures were obtained from American Type Culture Collection (ATCC) at 10801 University Boulevard, Manassas, Va. 20110-2209: Escherichia coli #11229, Pseudomonas aeruginosa #15442, Candida albicans #10231, Aspergillus niger #6275. The mold inoculum was 0.10 ml of A. niger culture specimen in 25 grams of sample to give approximately 2×10^5 CFU/g. The culture specimen was obtained from 7-day-old A. niger culture grown on Sabouraud Dextrose Agar (Difco Laboratories, Detroit, Mich.) with 0.2% Triton X-100 in 0.85% saline. Each of the 25-g samples were inoculated or challenged with 0.10 ml of the bacterial inoculum, the yeast inoculum, and the mold inoculum respectively on day-0 and day-14. All samples were stored at ambient temperature. Each sample (10 microliter) was streaked on appropriate agar plates (bacteria on Tryptic Soy Agar (Difco Laboratories, Detroit, Mich.) plates with neutralizer and yeast/mold on Potato Dextrose Agar (Difco Laboratories, Detroit, Mich.) plates with neutralizer) on day-1, day-2, day-3, day-7, day-14, day-15, day-16, day-17, day-21, and day-28 to test for survivors. Streaked plates were incubated at appropriate temperature and time (48-hr at 35±2° C. for bacteria and 72-hr at 28±2° C. for yeast/mold). On day-14, each sample was re-inoculated with appropriate inoculum after streaking on agar plates. Plates were read after incubation time. Recovery of surviving organisms at 14 days was a failing result for the challenge test. Biocides were always added after the reaction has been completed and after the batch has been cooled to <50° C. The desired temperature was dependent on the specific biocide. Many biocides become deactivated if exposed to high temperatures for an extended time. Each biocide was diluted with about 5× its weight with DI water and slowly added to the batch with good agitation. The dilution is to prevent the biocide from shocking the latex. The batch was mixed for a minimum of 20 minutes after the biocide was added to ensure good incorporation. If any temporary destabilization to the latex had occurred, it had time to recover prior to filtration. The Challenge Test is a qualitative laboratory procedure used to differentiate poorly and marginally preserved products from well-preserved products. Products are intentionally inoculated with test organisms and then evaluated by use of streak plating technique to determine if microbial reduction has been attained.

[2] = 0.10% Bioban CS-1135, 0.00% Bronopol, pH 6.68
[3] = 0.20% Bioban CS-1135, 0.00% Bronopol, pH 6.69
[4] = 0.80% Bioban CS-1135, 0.00% Bronopol, pH 6.62
[5] = 1.20% Bioban CS-1135, 0.00% Bronopol, pH 6.64
[6] = 2.00% Bioban CS-1135, 0.00% Bronopol, pH 6.82
[7] = 0.10% Bronopol (30% active), 0.00% Bioban CS-1135, pH 6.64, Table 1
[8] = 0.10% Bronopol (30% active), 0.00% Dowicil 75, pH 6.64, Table 3
[9] = 0.20% Bronopol (30% active), 0.00% Bioban CS-1135, pH 6.65, Table 1
[10] = 0.20% Bronopol (30% active), 0.00% Dowicil 75, pH 6.65, Table 3
[11] = 0.50% Bronopol (30% active), 0.00% Bioban CS-1135, pH 6.58, Table 1
[12] = 0.50% Bronopol (30% active), 0.00% Dowicil 75, pH 6.58, Table 3
[13] = 0.80% Bronopol (30% active), 0.00% Bioban CS-1135, pH 6.57, Table 1
[14] = 0.80% Bronopol (30% active), 0.00% Dowicil 75, pH 6.57, Table 3
[15] = 1.20% Bronopol (30% active), 0.00% Bioban CS-1135, pH 6.57, Table 1
[16] = 1.20% Bronopol (30% active), 0.00% Dowicil 75, pH 6.57, Table 3

In the case of `CC1(C)COCN1` [Bioban CS-1135, 4,4-dimethyl-oxazolidine], the “Challenge Test result: Bacteria E. coli & P. aeruginosa” value [1, 2] is reported as “Pass”, the “Challenge Test result: Bacteria E. coli & P. aeruginosa” value [1, 3] is reported as “Pass” and the “Challenge Test result: Bacteria E. coli & P. aeruginosa” value [1, 4] is reported as “Pass”. The “Challenge Test result: Bacteria E. coli & P. aeruginosa” value [1, 5] was “Pass”, the “Challenge Test result: Bacteria E. coli & P. aeruginosa” value [1, 6] was “Pass” and the “Compound A end-point in %” value (C. albicans & A. niger) was 2%. For the same compound, the “Challenge Test result: Mold A. niger” value (Aspergillus niger #6275; [2]) was “Fail”, the “Challenge Test result: Mold A. niger” value (Aspergillus niger #6275; [3]) was “Pass” and the “Challenge Test result: Mold A. niger” value (Aspergillus niger #6275; [4]) was “Pass”. The “Challenge Test result: Mold A. niger” value (Aspergillus niger #6275; [5]) was “Pass” and the “Challenge Test result: Mold A. niger” value (Aspergillus niger #6275; [6]) was “Pass”.
For `O=[N+]([O-])C(Br)(CO)CO` [Bronopol, 2-bromo-2-nitro-1,3-propanediol], the “Challenge Test result: Bacteria E. coli & P. aeruginosa” value [1, 7] was “Pass”, the “Challenge Test result: Bacteria E. coli & P. aeruginosa” value [1, 8] was “Pass” and the “Challenge Test result: Bacteria E. coli & P. aeruginosa” value [1, 9] was “Pass”. For the same compound, the “Challenge Test result: Bacteria E. coli & P. aeruginosa” value [1, 10] was “Pass”, the “Challenge Test result: Bacteria E. coli & P. aeruginosa” value [1, 11] was “Pass” and the “Challenge Test result: Bacteria E. coli & P. aeruginosa” value [1, 12] was “Pass”. For the same compound, the “Challenge Test result: Bacteria E. coli & P. aeruginosa” value [1, 13] was “Pass”, the “Challenge Test result: Bacteria E. coli & P. aeruginosa” value [1, 14] was “Pass” and the “Challenge Test result: Bacteria E. coli & P. aeruginosa” value [1, 15] was “Pass”. For the same compound, the “Challenge Test result: Bacteria E. coli & P. aeruginosa” value [1, 16] was “Pass”, the “Challenge Test result: Mold A. niger” value (Aspergillus niger #6275; [7]) was “Fail” and the “Challenge Test result: Mold A. niger” value (Aspergillus niger #6275; [8]) was “Fail”. The “killing of the mold (A. niger)” value (Aspergillus niger #6275; 0.2% BRONOPOL, acrylic latex A) was “failed to kill”, the “Challenge Test result: Mold A. niger” value (Aspergillus niger #6275; [9]) was “Fail” and the “Challenge Test result: Mold A. niger” value (Aspergillus niger #6275; [10]) was “Fail”. For the same compound, the “Challenge Test result: Mold A. niger” value (Aspergillus niger #6275; [11]) was “Pass”, the “Challenge Test result: Mold A. niger” value (Aspergillus niger #6275; [12]) was “Pass” and the “Challenge Test result: Mold A. niger” value (Aspergillus niger #6275; [13]) was “Pass”. For the same compound, the “Challenge Test result: Mold A. niger” value (Aspergillus niger #6275; [14]) was “Pass”, the “Challenge Test result: Mold A. niger” value (Aspergillus niger #6275; [15]) was “Pass” and the “Challenge Test result: Mold A. niger” value (Aspergillus niger #6275; [16]) was “Pass”. For the same compound, the “control of the growth of Aspergillus niger” value (Aspergillus niger #6275; maximum allowable level, test stabilized acrylic latex) was “failed to control”.
